According to US8178530B2, “Imidazolopyrazine compounds useful for the treatment of degenerative and inflammatory diseases” (Janssen Pharmaceutica NV, priority 2006, dated 2012):

Columns and labels:
MMP1 expression by SFs = test: 'MMP assay': MMP1 expression by 'complex trigger' activated synovial fibroblasts (MMP1 ELISA); format: cell-based, human; settings: Homo sapiens, Fibroblast, RASFs, 48 hrs
[1] = system: TNFα release by human PBMCs; test: Cytokine release by LPS-stimulated human PBMCs (TNFα ELISA); format: cell-based; settings: PBMC, LPS 1 μg/mL, 24 hr
Method: Human peripheral blood mononuclear cells (PBMCs) are isolated from “buffy coats” prepared from the blood of healthy volunteers, isolated essentially according to method of Bøyum (1984). In brief, buffy coat is diluted 1:1 with 1×PBS (Gibco) and 30 mL is carefully put on top of 20 mL Lymphoprep™ (Lucron Bioproducts) in 50 mL Falcon tubes. After centrifugation (35 min, 400 g, 18° C.) the mononuclear cells are collected from the white interphase and washed 3 times with 1×PBS by resuspending and centrifugation (10 min, 200 g). Isolated PBMCs are finally resuspended in RPMI 1640 (Cat. No. 21875, Gibco) that is supplemented with 10% heat-inactivated FBS (Hyclone).
For the assay PBMCs are seeded at 2.5E6 cells/mL in 160 μL in 96-well plates (Nunc). Serial dilution of the test compounds are made first in DMSO (Sigma) and then diluted 50-fold in M199 medium (Gibco) containing 1% heat-inactivated FBS. Compounds are further 1/10 diluted in the assay plates to obtain final DMSO concentration of 0.2%. Cells are preincubated with the compounds for 1 hr at 37° C., 5% CO2. Then, cells are stimulated with LPS (Escherichia coli serotype 026:B6, Cat. No. L2654, Sigma) that is added in a volume of 20 μL to a final concentration of 1 μg/mL and cells are further cultured for 24 hr. The plates are centrifuged and the supernatant is collected and stored at −80° C. until analysis of appropriate dilutions in ELISAs.
The following 384-well chemiluminescent ELISA protocol was developed to measure TNFα levels in the supernatant: White Lumitrac 600 384-well plates (Greiner) are coated with (40 μL/well) anti-TNFα capture antibody (Cat. No. 551220, BD Pharmingen) that is diluted to 1 μg/mL in 1×PBS (Gibco). After overnight incubation at 4° C., plates are washed with 1×PBS (80 g NaCl, 2 g KCl (Sigma), 11.5 g Na2HPO4.7H2O and 2 g KH2PO4 in 10 L milliQ; pH 7.4) and blocked with 100 μL/well buffer B (1×PBS containing 1% BSA (Sigma), 5% sucrose (Sigma) and 0.05% NaN3 (Sigma)). After 4 hr incubation at RT, blocking buffer is removed and plates are washed once with PBST (1×PBS with 0.05% Tween-20 (Sigma)). Then, 40 μL of sample is transferred to the ELISA plates and plates are incubated at 4° C. Next day, plates are washed 3 times (twice with PBST and once with PBS) and 35 μL/well biotinylated anti-TNFα antibody (Cat. No. 554511, BD Pharmingen) diluted first to a concentration of 250 ng/ml in buffer D (1×PBS with 1% BSA) is added. After 2 h of incubation at RT, plates are washed as described above and 35 μL/well of a 1/2000 dilution of streptavidin-HRP conjugate (Cat. No. SNN2004, Biosource) in buffer D is added. After 45 min, plates are washed as described above and incubated for 5 min with 50 μL/well BM Chemiluminescence ELISA Substrate POD (Roche). Readout is performed on the Luminoscan Ascent Luminometer (Labsystems) with an integration time of 100 msec delivering raw data (RLU: relative luminescence units). The following controls are included in the experiments, a maximal signal control, in which the cells are activated by LPS but only the 0.2% DMSO vehicle (and thus no compound) is added. This control indicates the maximal level of TNFα that can be achieved in the test. A minimal signal control is also included in these experiments. Here, cells are not triggered. This control returns the basal TNFα levels produced by the PBMCs. The percent inhibition (PIN) of the TNFα release, achieved by the compounds is then calculated based on the RLU data returned by the ELISA with following formula: 100−[((TNFα level compound X at concentration Y−minimal TNFα levels)/(maximal TNFα levels−minimal TNFα levels))×100]. Where compounds are tested at 8 concentrations (1/3 serial dilution), EC50-values can be calculated by curve fitting of the means of the PIN data achieved for a compound at each test concentration. […]

Row | Compound | EC50 (MMP1 expression by SFs) | EC50 [1]
1 | c1cn2c(-c3cn[nH]c3)cnc(Nc3ccc(N4CCOCC4)cc3)c2n1 [Compound 1, (4-Morpholin-4-yl-phenyl)-[5-(1H-pyrazol-4-yl)-imidazo[1,2-a]pyrazin-8-yl]-amine] | > 1000 nM | > 1000 nM
2 | NC(=O)c1ccc(-c2cnc(Nc3ccc(N4CCOCC4)cc3)c3nccn23)cc1 [Compound 13] | 501 to 1000 nM | > 1000 nM
3 | O=c1cc(-c2cnc(Nc3ccc(N4CCOCC4)cc3)c3nccn23)cc[nH]1 [Compound 85, 4-[8-(4-Morpholin-4-yl-phenylamino)imidazo[1,2-a]pyrazin-5-yl]-1H-pyridin-2-one] | 501 to 1000 nM | > 1000 nM
4 | CN1CCN(c2ccc(Nc3ncc(-c4cc[nH]c(=O)c4)n4ccnc34)cc2)CC1 [Compound 102, 4-{8-[4-(4-Methylpiperazin-1-yl)-phenylamino]imidazo[1,2-a]pyrazin-5-yl}-1H-pyridin-2-one] | > 1000 nM | > 1000 nM
5 | NC(=O)c1ccc(-c2cnc(Nc3ccc(N4CCOCC4)cc3)c3nccn23)s1 [Compound 152] | 101 to 500 nM | 101 to 500 nM
6 | NC(=O)c1cc(-c2cnc(Nc3ccc(N4CCOCC4)cc3)c3nccn23)cs1 [Compound 177, 4-[8-(4-Morpholin-4-yl-phenylamino)-imidazo[1,2-a]pyrazin-5-yl]-thiophene-2-carboxylic acid amide] | 101 to 500 nM | > 1000 nM
7 | O=C1NCc2cc(-c3cnc(Nc4ccc(N5CCOCC5)cc4)c4nccn34)ccc21 [Compound 178, 5-[8-(4-Morpholin-4-yl-phenylamino)-imidazo[1,2-a]pyrazin-5-yl]-2,3-dihydro-isoindol-1-one] | 101 to 500 nM | 1 to 100 nM
8 | NC(=O)c1coc(-c2cnc(Nc3ccc(N4CCOCC4)cc3)c3nccn23)c1 [Compound 179, 5-[8-(4-Morpholin-4-yl-phenylamino)-imidazo[1,2-a]pyrazin-5-yl]-furan-3-carboxylic acid amide] | 101 to 500 nM | > 1000 nM
9 | NC(=O)c1cc(-c2cnc(Nc3ccc(N4CCOCC4)cc3)c3nccn23)co1 [Compound 203] | 501 to 1000 nM | > 1000 nM
